# Reference: paper PMC10901556, “Conservation of Affinity Rather Than Sequence Underlies a Dynamic Evolution of the Motif-Mediated p53/MDM2 Interaction in Ray-Finned Fishes” (Molecular Biology and Evolution, 2024)
# Read-outs that look alike come from different tables or passages of the source. Where no end group is shown, it is not given here.
# Assays:
# Experiment in all cases: Fluorescence polarization displacement assay
# Type in all cases: binding
# [1] = target: T1, MDM2H.sapiens SWIB domain (Homo sapiens, UniProt Q00987)
# T1 construct: NusA-TEV-His6-PreScission (N, cleaved yes); made in house; host or cells: Escherichia coli BL21 (DE3)
# T1 sequence (Q00987 with tags, fused parts or gaps): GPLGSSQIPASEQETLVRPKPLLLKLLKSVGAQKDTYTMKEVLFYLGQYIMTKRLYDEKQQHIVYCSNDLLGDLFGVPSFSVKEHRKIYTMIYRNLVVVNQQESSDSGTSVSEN
# [2] = target: MDM2 SWIB domain, Clupea harengus; settings: for Kd: FP displacement of FITC-p53TADhuman^15–26 (15 nM) from MDM2 (1 μM), KD from IC50, 20 mM sodium phosphate pH 7.4, 150 mM NaCl, 1 mM TCEP
# Chain of MDM2 SWIB domain, Clupea harengus (as listed by the source): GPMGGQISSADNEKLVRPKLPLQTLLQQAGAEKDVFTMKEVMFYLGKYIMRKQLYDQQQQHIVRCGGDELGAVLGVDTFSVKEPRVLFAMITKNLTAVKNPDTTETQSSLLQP
# [3] = target: MDM2 SWIB domain, Anguilla anguilla; settings: for Kd: FP displacement of FITC-p53TADhuman^15–26 (15 nM) from MDM2 (1 μM), KD from IC50, 20 mM sodium phosphate pH 7.4, 150 mM NaCl, 1 mM TCEP
# Chain of MDM2 SWIB domain, Anguilla anguilla (as listed by the source): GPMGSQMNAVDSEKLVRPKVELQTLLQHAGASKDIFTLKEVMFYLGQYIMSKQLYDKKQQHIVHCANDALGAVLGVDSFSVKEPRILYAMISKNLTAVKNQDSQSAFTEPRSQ
# [4] = target: MDM2 SWIB domain, Oncorhynchus kisutch; settings: for Kd: FP displacement of FITC-p53TADhuman^15–26 (15 nM) from MDM2, KD from IC50, 20 mM sodium phosphate pH 7.4, 150 mM NaCl, 1 mM TCEP; for IC50 / Ki: O.kis MDM2 2000 nM
# Chain of MDM2 SWIB domain, Oncorhynchus kisutch (as listed by the source): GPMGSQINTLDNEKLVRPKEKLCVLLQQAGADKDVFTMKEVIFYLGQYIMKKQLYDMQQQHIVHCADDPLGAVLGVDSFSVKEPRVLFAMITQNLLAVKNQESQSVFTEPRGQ
# [5] = equals the mean of the replicates, read-out: IC50 [nM], mean
# [6] = mean of the replicates (n = 3 or 6), read-out: Ki [nM] Average
# [7] = mean of the replicates (n = 3 or 6), read-out: Ki [µM] Average
# [8] = replicate 1, MDM2 1000 nM, labeled probe 15 nM, read-out: IC50 [M] (IT)
# [9] = replicate 1, calculated from IC50 with Kd for probe […], read-out: Ki
# [10] = replicate 2, MDM2 1000 nM, labeled probe 15 nM, read-out: IC50 [M] (IT)
# [11] = replicate 2, calculated from IC50 with Kd for probe […], read-out: Ki
# [12] = replicate 3, MDM2 1000 nM, labeled probe 15 nM, read-out: IC50 [M] (IT)
# [13] = replicate 3, calculated from IC50 with Kd for probe […], read-out: Ki
# [14] = labeled probe 15 nM, replicate 1, read-out: IC50 [M] (IT)
# [15] = labeled probe 15 nM, replicate 2, read-out: IC50 [M] (IT)
# [16] = labeled probe 15 nM, replicate 3, read-out: IC50 [M] (IT)
# [17] = average of the replicates, probe 15 nM, Kd for probe […], read-out: Ki [nM] Average
# [18] = average of the replicates, probe 15 nM, Kd for probe […], read-out: Ki [µM] Average
# [19] = calculated from IC50, Kd for probe […], probe 15 nM, replicate 1, read-out: Ki
# [20] = calculated from IC50, Kd for probe […], probe 15 nM, replicate 2, read-out: Ki
# [21] = calculated from IC50, Kd for probe […], probe 15 nM, replicate 3, read-out: Ki
# [22] = mean of the replicates, probe 15 nM, read-out: IC50 [nM], mean of the replicates
compound,measurement,setting,value
Ac-SQESFQELWKMMC [A.ang p53 P1 short],IC50,[1],265 nM
same,Ki,[1],12.9 nM
Ac-SQDTFQDLWENVA [T.rub p53 P1 short],IC50,[1],12700 nM
same,Ki,[1],1710 nM
Ac-GQCSFQQLWESNM [O.kis p53 P1a short],IC50,[1],23200 nM
same,Ki,[1],3150 nM
Ac-SQESFQELWKMIL [Tele p53 AA],IC50,[1],105 nM
same,KD,"[1]; FP displacement, printed in nM (Fig. S4 A native and B human MDM2)",lowest_Kd
same,"Ki, remark beside the average","[1]; H.sap MDM2, labeled probe 15 nM, protein 200 nM, result in words",very high affinity
"GPMGMNDQGDSPDFEDLWNSIVPPVADVPWETSYLPESFDEQVFEQLQVSEPYIPTLGGGSPPCSA [C.har p53 P2 full, expressed full-length Atlantic herring p53TAD paralog 2]",Kd,[2],40 ± 10 nM
same,IC50,[2]; [5],904 nM
same,Ki,[2]; [6],37.1 nM
same,Ki,[2]; [7],37 nM
same,IC50,[2]; [8],913 nM
same,Ki,[2]; [9],39.8 nM
same,IC50,[2]; [10],983 nM
same,Ki,[2]; [11],59.7 nM
same,IC50,[2]; [12],815 nM
same,Ki,[2]; [13],11.9 nM
Ac-SQDETFQALWNTVT [A.ang p53 P2 short],IC50,[1],5780 nM
same,Ki,[1],767 nM
"GPMGMTEQEGTGALEYSLSQDETFQALWNTVTVPTEDEGWGSLDNQYLVGSPLQDGFDEKLFDVPATPAPPQPSGSALDSGAPPAST [A.ang p53 P2 full, expressed full-length European eel p53TAD paralog 2]",Kd,[3],60 ± 10 nM
same,IC50,[3]; [5],1230 nM
same,Ki,[3]; [6],63.5 nM
same,Ki,[3]; [7],63.5 nM
same,IC50,[3]; [8],1360 nM
same,Ki,[3]; [9],85.1 nM
same,IC50,[3]; [10],1080 nM
same,Ki,[3]; [11],39.5 nM
same,IC50,[3]; [12],1240 nM
same,Ki,[3]; [13],65.8 nM
"GPMGMEELSPPLGQCSFQQLWESNMTPQGPSIPLVATENWSDLDVSLLPDATLHKVFDEVLFELLEPPVVEPSVSTLDSVPPPAST [O.kis p53 P1a full, expressed full-length coho salmon p53TAD paralog 1a]",Kd,[4],48 ± 5 nM
same,IC50,[4]; [14],2.11e-06 M
same,IC50,[4]; [15],2.02e-06 M
same,IC50,[4]; [16],2.12e-06 M
same,Ki,[4]; [17],48.4 nM
same,Ki,[4]; [18],48 nM
same,Ki,[4]; [19],52.4 nM
same,Ki,[4]; [20],38.8 nM
same,Ki,[4]; [21],54.1 nM
same,IC50,[4]; [22],2.08e-06 M
"GPMGMTEQEAESLPLSQESFQELWKMMCPPATIHEPLSVNDGWHLESLLSETPLQESIDAGVFDLPTTLPPQPSVSAFNGDAALSST [A.ang p53 P1 full, expressed full-length European eel p53TAD paralog 1]",Kd,[3],230 ± 20 nM
same,IC50,[3]; [5],2210 nM
same,Ki,[3]; [6],229 nM
same,Ki,[3]; [7],229 nM
same,IC50,[3]; [8],2080 nM
same,Ki,[3]; [9],208 nM
same,IC50,[3]; [10],2490 nM
same,Ki,[3]; [11],277 nM
same,IC50,[3]; [12],2060 nM
same,Ki,[3]; [13],203 nM
CC(C)C[C@H](NC(=O)[C@@H](NC(=O)[C@H](CC(N)=O)NC(=O)[C@H](CC(N)=O)NC(=O)[C@H](CCC(=O)O)NC(=O)[C@H](C)NC(=O)[C@H](CC(C)C)NC(=O)[C@H](CC(C)C)NC(=O)[C@H](CCCCN)NC(=O)[C@H](Cc1c[nH]c2ccccc12)NC(=O)[C@H](CC(C)C)NC(=O)[C@H](CC(=O)O)NC(=O)[C@H](CO)NC(=O)[C@H](Cc1ccccc1)NC(=O)[C@@H](NC(=O)[C@@H](N)CCC(=O)O)[C@@H](C)O)C(C)C)C(=O)O [H.sap p53 P27A],remark on affinity beside the average Ki,"[1]; probe 15 nM, protein 200 nM, calculated Ki negative",very high affinity
Ac-SQESFQELWNMVI [L.ocu p53 short],IC50,[1],1050 nM
same,Ki,[1],120 nM
Ac-SQESFQELWNMVA [Acti p53 AA],IC50,[1],459 nM
same,Kd,[1],39 nM
Ac-SQDSFKELWDQLP [M.zeb p53 P1 short],IC50,[1],2150 nM
same,Ki,[1],270 nM
CC[C@H](C)[C@H](NC(=O)[C@H](CO)NC(=O)[C@H](CC(N)=O)NC(=O)[C@H](Cc1c[nH]c2ccccc12)NC(=O)[C@H](CC(C)C)NC(=O)[C@H](CC(=O)O)NC(=O)[C@H](CCC(=O)O)NC(=O)[C@H](Cc1ccccc1)NC(=O)[C@H](CC(=O)O)NC(=O)[C@@H]1CCCN1C(=O)[C@H](CO)NC(=O)[C@H](CC(=O)O)NC(C)=O)C(=O)N[C@H](C(=O)O)C(C)C [C.har p53 P2 short],IC50,[1],2310 nM
same,Ki,[1],293 nM
"GPMGMNQDEMTELPMSQGTFDEIWASNFVNNLDKTILDDLPPAFSNPSIHTLMDLGPSGVEGFVGLELPLDGSAPTPSSSPGMDCLPPTATT [C.har p53 P1 full, expressed full-length Atlantic herring p53TAD paralog 1]",Kd,[2],190 ± 40 nM
same,IC50,[2]; [5],1440 nM
same,Ki,[2]; [6],189 nM
same,Ki,[2]; [7],190 nM
same,IC50,[2]; [8],1470 nM
same,Ki,[2]; [9],199 nM
same,IC50,[2]; [10],1660 nM
same,Ki,[2]; [11],252 nM
same,IC50,[2]; [12],1180 nM
same,Ki,[2]; [13],117 nM
Ac-SQESFEDLWKMNL [O.kis p53 P2 short],IC50,[1],5930 nM
same,Ki,[1],787 nM
Ac-SQESFQDLWNMVT [Acti p53 ML],IC50,[1],1510 nM
same,Ki,[1],183 nM
"GPMGMADLAENVSLPLSQESFEDLWKMNLNLMAVQPPVTESWVGYDNFMMEAPLQVEFDPSLFEVSATEPAPQPSISTLDTGSPPTST [O.kis p53 P2 full, expressed full-length coho salmon p53TAD paralog 2]",Kd,[4],70 ± 10 nM
same,IC50,[4]; [14],2.13e-06 M
same,IC50,[4]; [15],2.37e-06 M
same,IC50,[4]; [16],2.18e-06 M
same,Ki,[4]; [17],68.6 nM
same,Ki,[4]; [18],69 nM
same,Ki,[4]; [19],55.4 nM
same,Ki,[4]; [20],88.9 nM
same,Ki,[4]; [21],61.7 nM
same,IC50,[4]; [22],2.23e-06 M
Ac-SQGTFDEIWASNF [C.har p53 P1 short],IC50,[1],9330 nM
same,Ki,[1],1250 nM
Ac-SQESFQELWNMVM [Tele p53 ML],IC50,[1],456 nM
same,Kd,[1],39 nM
Ac-SQDSFRELWESVV [C.arg p53 P1 short],IC50,[1],8080 nM
same,Ki,[1],1080 nM
"GPMGMEEQELSFPMSQGSFQQLWETNMSTQGSNIPPFGTGNWSDLDVSLAPVLPEATFHEDFDEGLFELPEPLAVEPLMSPLDSVPPPAST [O.kis p53 P1b full, expressed full-length coho salmon p53TAD paralog 1b]",Kd,[4],60 ± 10 nM
same,IC50,[4]; [14],2.27e-06 M
same,IC50,[4]; [15],2.26e-06 M
same,IC50,[4]; [16],1.96e-06 M
same,Ki,[4]; [17],59.6 nM
same,Ki,[4]; [18],60 nM
same,Ki,[4]; [19],75.2 nM
same,Ki,[4]; [20],73.4 nM
same,Ki,[4]; [21],30.3 nM
same,IC50,[4]; [22],2.16e-06 M
